Source: PMC11672547, “Combination of Coevolutionary Information and Supervised Learning Enables Generation of Cyclic Peptide Inhibitors with Enhanced Potency from a Small Data Set” (ACS Central Science, 2024)
Like-named read-outs stand apart in the source and are kept apart here. Numbered stars: 1 amine (or outer) side, 2 acyl side, 3 side chain; on linkers, the order of the positions; unused ones are H or OH. Bridge positions count the residues as written; N and C are the ends. Peptide text beside a SMILES is read from it. TBMB = c1c(C[*:1])cc(C[*:3])cc1C[*:2]

Assays:
[1] = target: T1, human urokinase-type plasminogen activator (huPA) (Homo sapiens, UniProt P00749); assay: huPA inhibition, fluorogenic enzyme activity assay (Z-Gly-Gly-Arg-AMC), Ki by Cheng-Prusoff; format: biochemical; conditions: 25 °C
T1 construct: (UPA-LMW, Molecular Innovations, Novi, MI, USA) 1.5 nM; purchased Molecular Innovations UPA-LMW
Description: bicyclic peptides. The activity assay was performed by incubating […] huPA with 50 μM fluorogenic substrate Z-Gly-Gly-Arg-AMC (50 μM; Bachem, Bubendorf, Switzerland) and […]
NaCl, 10 mM MgCl2, 1mM CaCl2, 0.1% w/v BSA, 0.01% v/v Triton-X100 and 5% v/v DMSO.
The measurements were performed on a Tecan microplate reader (Tecan infinite 200 pro, Tecan Trading AG, Switzerland) using black microfluor 96-well plate Nunc MicroWell, (Thermo Fisher Scientific, Dreieich, Germany) The enzymatic reactions were performed at 25 °C for 30 min, under shacking with an excitation wavelength of 355 nm and an emission recording at 460 nm. The initial velocities were monitored as changes in fluorescence intensity. The sigmoidal curves were fitted to the data using the following non-linear regression equation for the inhibitory dose-response curves with variable slope (2): […]
where x is the peptide concentration, y is the residual percentage of protease activity and p is the hill slope. Half maximum inhibitory concentration (IC50) values were derived from the fitted curves from GraphPad Prism 8 8.0.0. software (GraphPad software, Inc., San Diego, California). The final Ki was subsequently determined using the Cheng-Prusoff equation (3): […]
where Km (115 μM) is the Michaelis constant for the hydrolysis of Z-Gly-Gly-Arg-AMC catalysed by huPA which has been determined by standard Michaelis-Menten equation.
Values were determined using either OriginPro 8G software (OriginLab Corporation, Northamppton, MA, USA) or GraphPad Prism 8.0.0. software (GraphPad software, Inc., San […]
Recombinant production of the catalytic domain of human urokinase-type […]
The low molecular weight (LMW) human urokinase-type plasminogen activator (huPA) comprising the truncated 23 amino acid peptide fragment of chain A (Lys136-Lys158 in […]

[2] = target: T1, human urokinase-type plasminogen activator (huPA); conditions: UK140 family of 31 phage-encoded bicyclic peptides; cited from earlier work
[3] = target: T2, human tPA (htPA) (Homo sapiens, UniProt P00750); assay: Specificity determination, residual protease activity (fluorogenic substrate); format: biochemical; conditions: 25 °C, pH 7.4, Z-Gly-Gly-Arg-AMC 50 μM
T2 construct: purchased Molecular Innovations HTPATC
T2 sequence (P00750 311-562 limits assumed): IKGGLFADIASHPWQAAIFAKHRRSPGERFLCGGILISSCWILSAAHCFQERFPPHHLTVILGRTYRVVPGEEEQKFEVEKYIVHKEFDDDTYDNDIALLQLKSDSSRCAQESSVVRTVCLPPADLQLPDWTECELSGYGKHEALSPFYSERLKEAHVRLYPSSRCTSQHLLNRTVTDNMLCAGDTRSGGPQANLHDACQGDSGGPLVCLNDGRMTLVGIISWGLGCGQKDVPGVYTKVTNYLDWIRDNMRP
T2 sequence (P00750 36-310 partner limits assumed): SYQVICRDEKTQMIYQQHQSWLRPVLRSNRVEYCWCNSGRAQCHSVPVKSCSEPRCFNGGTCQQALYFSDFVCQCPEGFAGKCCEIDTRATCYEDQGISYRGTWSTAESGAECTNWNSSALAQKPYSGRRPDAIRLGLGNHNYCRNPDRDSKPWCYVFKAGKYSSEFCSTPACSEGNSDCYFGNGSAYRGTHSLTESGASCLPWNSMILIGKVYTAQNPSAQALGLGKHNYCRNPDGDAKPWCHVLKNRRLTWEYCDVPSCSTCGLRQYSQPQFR
Description: (§1) 5% v/v DMSO. Final concentrations of serine proteases were the following: human uPA (UPA-LMW, Molecular Innovations, Novi, MI, USA) 1.5 nM, mouse uPA (MUPA-LMW, Molecular Innovations, Novi, MI, USA) 12 nM, human tPA (HTPATC; Molecular Innovations, Novi, MI, USA) 7.5 nM, mouse tPA (MTPA, Molecular Innovations, Novi, MI, USA) 6 nM, human trypsin (HTRYP, Molecular Innovations, Novi, MI, USA) 0.05 nM, human plasmin (HPLM, Molecular Innovations, Novi, MI, USA) 1.5 nM, human plasma kallikrein (IHPKA, Innovative Research, Novi, MI, USA) 0.5 nM, human thrombin (IHT, Innovative Research, Novi, MI, USA) 10 nM, and human factor XIIa (IHFXIIa, Innovative Research, Novi, MI, USA) 6 nM. Two-fold dilutions of UK970 bicyclic peptide inhibitor were prepared ranging from 1 mM to 125 nM for all the proteases. For human uPA an extra two-fold UK970 inhibitor dilution experiment was performed by using inhibitor concentrations ranging from 2000 nM to 0.12 nM. For the determination of the Ki inhibitory constants, the following fluorogenic substrates were used at final concentration of 50 μM: Z-Gly-Gly-Arg-AMC (for human uPA, murine uPA, human tPA, murine tPA, human trypsin, human thrombin and human factor XIIa; Bachem, Bubendorf, Switzerland), Z-Phe-Arg-AMC (for human plasma kallikrein; Bachem, Bubendorf, Switzerland) and H-D-Val-Leu-Lys-AMC (for human plasmin; Bachem, Bubendorf, Switzerland). The initial velocities were monitored as changes in fluorescence intensity during 30 min on a Tecan microplate reader (Tecan infinite 200 pro, Tecan Trading AG, Switzerland) using black microfluor 96-well plate Nunc MicroWell (Thermo Fisher Scientific, Dreieich, Germany). The enzymatic reactions were performed at 25 °C under shacking with an excitation wavelength of 355 nm and an emission recording at 460 nm.
(§2) Apparent equilibrium constants Kiapps values were determined by non-linear regression analyses of Vi/V0 versus [I]0 using equation (2). The final Kis were subsequently determined by correcting for the competitive effect of the substrate [S]0 using equation (3). The kinetic constants Kms for the hydrolysis of fluorogenic substrate, catalysed by each protease, were determined by standard Michaelis-Menten equation. Values were determined using either OriginPro 8G software (OriginLab Corporation, Northamppton, MA, USA) or GraphPad Prism 8.0.0. software (GraphPad software, Inc., San Diego, California). […]

[4] = target: T3, human plasmin (Homo sapiens, UniProt P00747); assay: as above; format: biochemical; conditions: 25 °C, pH 7.4, H-D-Val-Leu-Lys-AMC 50 μM
T3 construct: Bachem; purchased Molecular Innovations HPLM
T3 sequence (P00747 581-810 limits assumed): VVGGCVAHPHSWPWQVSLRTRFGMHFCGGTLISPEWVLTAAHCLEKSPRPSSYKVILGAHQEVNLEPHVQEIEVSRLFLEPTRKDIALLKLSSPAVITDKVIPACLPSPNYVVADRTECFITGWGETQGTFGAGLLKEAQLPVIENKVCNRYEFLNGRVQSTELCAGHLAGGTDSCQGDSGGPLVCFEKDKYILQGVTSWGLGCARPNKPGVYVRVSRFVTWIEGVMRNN
T3 sequence (P00747 97-580 partner limits assumed): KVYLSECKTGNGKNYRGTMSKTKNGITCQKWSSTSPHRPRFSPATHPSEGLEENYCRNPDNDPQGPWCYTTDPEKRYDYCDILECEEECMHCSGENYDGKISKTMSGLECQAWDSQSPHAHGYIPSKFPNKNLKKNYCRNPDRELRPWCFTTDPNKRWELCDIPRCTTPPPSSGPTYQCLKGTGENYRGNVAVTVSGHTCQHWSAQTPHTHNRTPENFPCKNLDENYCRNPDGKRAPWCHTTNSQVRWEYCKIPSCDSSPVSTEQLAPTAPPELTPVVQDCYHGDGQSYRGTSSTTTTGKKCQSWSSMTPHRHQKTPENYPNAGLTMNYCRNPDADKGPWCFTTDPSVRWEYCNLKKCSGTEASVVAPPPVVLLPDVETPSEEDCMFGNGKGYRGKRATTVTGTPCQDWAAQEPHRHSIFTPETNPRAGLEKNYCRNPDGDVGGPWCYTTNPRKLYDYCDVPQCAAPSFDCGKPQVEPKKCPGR
Description: as §1, §2

[5] = target: T4, murine tPA (mtPA) (Mus musculus, UniProt P11214); assay: as above; format: biochemical; conditions: 25 °C, pH 7.4, Z-Gly-Gly-Arg-AMC 50 μM
T4 construct: purchased Molecular Innovations MTPA
T4 sequence (P11214 33-559): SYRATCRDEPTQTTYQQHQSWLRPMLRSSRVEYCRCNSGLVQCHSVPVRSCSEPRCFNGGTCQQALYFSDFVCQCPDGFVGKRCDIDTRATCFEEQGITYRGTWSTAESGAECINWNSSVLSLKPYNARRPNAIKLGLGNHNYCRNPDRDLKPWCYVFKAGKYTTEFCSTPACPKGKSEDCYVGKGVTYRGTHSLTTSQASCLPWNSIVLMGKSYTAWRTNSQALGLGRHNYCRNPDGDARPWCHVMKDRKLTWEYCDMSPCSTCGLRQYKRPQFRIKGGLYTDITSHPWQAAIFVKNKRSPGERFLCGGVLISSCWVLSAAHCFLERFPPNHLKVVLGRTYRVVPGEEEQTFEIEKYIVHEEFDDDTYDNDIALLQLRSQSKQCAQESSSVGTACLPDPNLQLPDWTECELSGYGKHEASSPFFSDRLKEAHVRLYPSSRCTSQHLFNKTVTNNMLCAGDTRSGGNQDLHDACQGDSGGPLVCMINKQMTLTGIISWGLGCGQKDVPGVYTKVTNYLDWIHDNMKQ
Description: as §1, §2

[6] = target: T5, human factor XIIa (Homo sapiens, UniProt P00748); assay: as above; format: biochemical; conditions: 25 °C, pH 7.4, Z-Gly-Gly-Arg-AMC 50 μM
T5 construct: human factor XIIa (IHFXIIa, Innovative Research,; purchased Innovative Research IHFXIIa
T5 sequence (P00748 373-615 limits assumed): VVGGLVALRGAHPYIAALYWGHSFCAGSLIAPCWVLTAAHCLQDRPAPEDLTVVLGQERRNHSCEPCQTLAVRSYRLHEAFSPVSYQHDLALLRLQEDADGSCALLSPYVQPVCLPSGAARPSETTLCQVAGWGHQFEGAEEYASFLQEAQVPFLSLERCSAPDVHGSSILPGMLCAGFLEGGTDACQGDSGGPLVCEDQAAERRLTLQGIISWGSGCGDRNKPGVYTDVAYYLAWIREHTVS
T5 sequence (P00748 20-372 partner limits assumed): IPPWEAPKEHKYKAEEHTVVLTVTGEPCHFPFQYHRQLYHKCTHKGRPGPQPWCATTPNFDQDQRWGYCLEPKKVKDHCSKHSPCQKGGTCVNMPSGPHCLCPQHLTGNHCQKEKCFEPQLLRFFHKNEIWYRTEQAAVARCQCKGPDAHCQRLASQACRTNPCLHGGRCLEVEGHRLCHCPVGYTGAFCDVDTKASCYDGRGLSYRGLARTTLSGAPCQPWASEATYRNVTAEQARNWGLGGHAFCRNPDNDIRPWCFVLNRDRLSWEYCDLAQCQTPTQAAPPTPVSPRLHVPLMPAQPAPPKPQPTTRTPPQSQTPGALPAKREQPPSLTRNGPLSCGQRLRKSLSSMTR
Description: as §1, §2

[7] = target: T6, human thrombin (Homo sapiens, UniProt P00734); assay: as above; format: biochemical; conditions: 25 °C, pH 7.4, Z-Gly-Gly-Arg-AMC 50 μM
T6 construct: human thrombin (IHT, Innovative Research,; purchased Innovative Research IHT
Description: as §1, §2

[8] = target: T7, murine uPA (muPA) (Mus musculus, UniProt P06869); assay: as above; format: biochemical; conditions: 25 °C, pH 7.4, Z-Gly-Gly-Arg-AMC 50 μM
T7 construct: mouse uPA (MUPA-LMW,; purchased Molecular Innovations MUPA-LMW
T7 sequence (P06869 180-433 limits assumed): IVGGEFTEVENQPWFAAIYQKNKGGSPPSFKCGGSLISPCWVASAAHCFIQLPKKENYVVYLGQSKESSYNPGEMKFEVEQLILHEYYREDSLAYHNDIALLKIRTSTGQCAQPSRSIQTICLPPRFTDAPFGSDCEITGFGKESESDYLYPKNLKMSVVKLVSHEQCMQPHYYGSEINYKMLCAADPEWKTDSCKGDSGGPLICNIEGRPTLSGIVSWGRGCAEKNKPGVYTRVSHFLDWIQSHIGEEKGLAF
T7 sequence (P06869 157-178 partner limits assumed): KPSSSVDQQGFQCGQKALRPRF
Description: as §1, §2

[9] = target: T8, human plasma kallikrein (Homo sapiens, UniProt P03952); assay: as above; format: biochemical; conditions: 25 °C, pH 7.4, Z-Phe-Arg-AMC 50 μM
T8 construct: purchased Innovative Research IHPKA
T8 sequence (P03952 391-638 limits assumed): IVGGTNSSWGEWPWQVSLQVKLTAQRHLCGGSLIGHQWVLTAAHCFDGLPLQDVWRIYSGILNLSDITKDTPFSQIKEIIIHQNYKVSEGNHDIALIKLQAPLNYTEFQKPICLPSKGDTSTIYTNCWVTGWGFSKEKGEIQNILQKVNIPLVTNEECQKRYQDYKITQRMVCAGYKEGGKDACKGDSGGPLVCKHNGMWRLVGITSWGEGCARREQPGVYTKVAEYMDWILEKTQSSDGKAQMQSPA
T8 sequence (P03952 20-390 partner limits assumed): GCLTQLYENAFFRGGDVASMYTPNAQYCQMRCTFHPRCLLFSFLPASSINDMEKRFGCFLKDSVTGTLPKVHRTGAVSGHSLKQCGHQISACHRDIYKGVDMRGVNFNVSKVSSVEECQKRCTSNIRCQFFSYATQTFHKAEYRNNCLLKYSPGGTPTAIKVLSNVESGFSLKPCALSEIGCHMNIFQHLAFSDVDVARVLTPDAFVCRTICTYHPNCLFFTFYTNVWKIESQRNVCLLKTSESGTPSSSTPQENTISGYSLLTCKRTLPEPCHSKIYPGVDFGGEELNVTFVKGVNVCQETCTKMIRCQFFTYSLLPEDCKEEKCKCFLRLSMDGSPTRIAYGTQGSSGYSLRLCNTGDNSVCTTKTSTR
Description: as §1, §2

[10] = pH 7.4, substrate 50 μM, mean ± S.E. of at least three measurements, read-out: Ki

Row | Ki [1, 10] [µM] | Ki [3] [µM] | Ki [4] [µM] | Ki [5] [µM] | Ki [6] [µM] | Ki [7] [µM] | Ki [8] [µM] | Ki [9] [µM] | Ki ([1]; pH 7.4, Z-Gly-Gly-Arg-AMC 50 μM, read-out: Ki ± S.E.) [µM] | SMILES | Ki [2] [µM]
1 | 0.202 |  |  |  |  |  |  |  |  | CC(C)[C@@H]1NC(=O)CNC(=O)[C@@H]2CSCc3cc(cc(c3)CSC[C@@H](C(=O)NCC(N)=O)NC(=O)[C@H](CO)NC(=O)[C@H](CO)NC(=O)[C@@H]3CCCN3C(=O)[C@H](CC(=O)O)NC1=O)CSC[C@H](NC(=O)[C@H](C)N)C(=O)N[C@@H](CC(N)=O)C(=O)N[C@@H](CO)C(=O)N[C@@H](CCCCN)C(=O)N[C@@H](Cc1ccccc1)C(=O)N[C@@H](CO)C(=O)NCC(=O)N2 [UK140, reference compound] (H-ACNSKFSGCGVDPSSCG-NH2; linker 2-9-16 via TBMB) | 0.2
2 | 0.0043 ± 0.0001 | > 1000 | > 1000 | > 1000 | > 1000 | > 1000 | > 1000 | > 1000 | 0.004 ± 0.001 | CC(C)[C@@H]1NC(=O)[C@H](Cc2ccccc2)NC(=O)[C@H](CCCNC(=N)N)NC(=O)[C@H](CO)NC(=O)[C@@H](NC(=O)[C@H](C)N)CSCc2cc3cc(c2)CSC[C@@H](C(=O)NCC(N)=O)NC(=O)[C@@H]2CCCN2C(=O)CNC(=O)CNC(=O)[C@H](CCCNC(=N)N)NC(=O)CNC(=O)[C@H](CCCNC(=N)N)NC(=O)[C@H](CSC3)NC(=O)[C@H](CC(=O)O)NC(=O)[C@H](C(C)C)NC1=O [UK970] (H-ACSRFVVDCRGRGGPCG-NH2; linker 2-9-16 via TBMB) | 
